Laboratory results from patent publication US11925621B2, “Medicinal preparation for external use” (Sumitomo Pharma Co., Ltd., priority 2018, dated 2024).

Columns and labels:
[1] = test system: ECG (electrocardiogram) parameters of guinea pigs; assay: Safety pharmacology study of the cardiovascular system: ECG parameters under anesthesia; type: in vivo; settings: for effect on the cardiovascular system / ECG parameters: guinea pigs under anesthesia, continuous intravenous administration
Method: Test 3. […] Evaluation of ECG of guinea pigs was conducted under anesthesia with intra-abdominal administration of a mixed solution of urethane and α-chloralose. Guinea pigs under anesthesia were retained in a supine position, and a right cervical vein was exposed to […] cannula. […] QRS interval and QTc interval are shown as rates of change (%) by similar equations.

SNL model rats = assay: Analgesic effect in a fifth lumbar nerve ligation (SNL) model, von Frey test; type: in vivo, Wistar rats; settings: for extension range of reaction thresholds ± standard error (50% paw withdrawal threshold, after minus before administration): about 10 mg formulation on footpad for 1 hour, evaluated another 1 hour after removal, n=9; for extension range of reaction thresholds compared with the vehicle group: about 10 mg formulation on footpad, versus vehicle (Control example 1)
Method: Test 2. […] A SNL model was prepared by a method of Kim and Chung (Pain 50, 355-363, 1992) with partial modification thereof. Specifically, male 5-week-old Wistar rats were anesthetized with pentobarbital and isoflurane inhalation, and under anesthesia, an unilateral fifth lumber nerve was exposed. Then, the fifth lumber nerve was ligated with a silk surgical suture to obtain a SNL model. Evaluation of the analgesic effect was conducted with the von Frey test. Specifically, an animal was poked with a von Frey hair on a footpad in a hind limb of an animal at the side of operation. Reaction thresholds (50% paw withdrawal thresholds) to mechanical stimulation were calculated with a formula according to a method of Chaplan (Journal of Neuroscience Methods 53, 55-63, 1994). […] Reaction thresholds were measured on one and two days before the evaluation of test compounds, and an average of the measured values was determined as the reaction threshold before administration of test compounds. […] One day after the division into groups, test compounds were administered. […] Administration of a test compound was carried out by application of about 10 mg of each formulation on a medical adhesive film, and attachment of the film to a footpad of a SNL rat at the side of operation under anesthesia with isoflurane inhalation. One hour after the application, the film was removed, and another one hour after, reaction thresholds after administration of the test compound were evaluated. After the evaluation, blood was immediately collected from a cervical vein, and the concentration of the test compound in plasma was measured. The efficacy of the analgesic effect of a test compound is shown as an extension range of reaction thresholds±standard error (g) by the following formula: (Reaction threshold after administration of a test compound)−(Reaction threshold before administration of a test compound).

[2] = Concentration of the test compound in plasma after evaluation in SNL rats; type: in vivo; settings: Wistar, rat, topical about 10 mg formulation, blood collected immediately after evaluation (2 hours after application)
Method: One day after the division into groups, test compounds were administered. […] Administration of a test compound was carried out by application of about 10 mg of each formulation on a medical adhesive film, and attachment of the film to a footpad of a SNL rat at the side of operation under anesthesia with isoflurane inhalation. One hour after the application, the film was removed, and another one hour after, reaction thresholds after administration of the test compound were evaluated. After the evaluation, blood was immediately collected from a cervical vein, and the concentration of the test compound in plasma was measured.

[3] = Concentration in plasma during continuous intravenous administration in guinea pigs; type: in vivo; settings: dose of 30 mg/kg continuous intravenous for 30 minutes
Method: Evaluation of ECG of guinea pigs was conducted under anesthesia with intra-abdominal administration of a mixed solution of urethane and α-chloralose. Guinea pigs under anesthesia were retained in a supine position, and a right cervical vein was exposed to […] cannula. […] QRS interval and QTc interval are shown as rates of change (%) by similar equations.

[4] = 30 mg/kg continuous intravenous for 30 minutes, at 30 minutes after administration
[5] = 15 mg/kg continuous intravenous for 30 minutes, at 30 minutes after administration

Row | Structure (SMILES) | rates of change of each ECG parameter compared with the vehicle group ([1]; 30 mg/kg continuous intravenous for 30 minutes) | PR interval rate of change (prolonged) [1, 4] [%] | QRS interval rate of change (prolonged) [1, 4] [%] | QTc interval rate of change (prolonged) [1, 4] [%] | plasma concentration without effect on the cardiovascular system relative to that at which the analgesic effect appeared ([1]; guinea pig maximum plasma concentration at 30 mg/kg versus SNL rat plasma concentration) | effect on the cardiovascular system / ECG parameters [1] | difference between extension ranges of reaction thresholds of Compound A and lidocaine groups (SNL model rats; Example 1 ointment versus 5% lidocaine ointment) | extension range of reaction thresholds ± standard error (50% paw withdrawal threshold, after minus before administration) (SNL model rats) [g] | extension range of reaction thresholds compared with the vehicle group (SNL model rats) | concentration at 2 h [2] [ng/mL] | maximum concentration in plasma [3] [µg/mL] | PR interval rate of change (prolonged) [1, 5] [%] | QRS interval rate of change (prolonged) [1, 5] [%]
1 | CCn1c(CN[C@@H](C)C(N)=O)nc2ccc(Oc3ccc(C)cc3)cc21 [Compound A, N^2-{[1-ethyl-6-(4-methylphenoxy)-1H-benzimidazol-2-yl]methyl}-L-alaninamide] | no statistically significant difference | 22.3 | 10.3 | 9.0 | about 670 times | not observed until the dose rose to 30 mg/kg | no statistically significant difference | 2.2 ± 0.56 | statistically significantly increased | 25.2 | 16.9 | – | –
2 | CCN(CC)CC(=O)Nc1c(C)cccc1C [lidocaine, reference compound] | – | – | – | – | – | observed at a dose of 15 mg/kg | – | 4.1 ± 0.62 | statistically significantly increased | – | – | 35.1 | 44.5
